{"source": "patent US12521415B2", "about": "“Accelerating repair of mucosal injury using gold(III) compounds” (University of Kentucky Research Foundation, priority 2020, dated 2026)", "key": {"isolated IEC": {"system": "isolated IEC", "experiment": "Western blot of IEC proteins from control or DSS colitis mice gavaged with AuPhos", "format": "in vivo, mouse", "method": "Control or DSS colitis mice were gavaged with vehicle (−) or AuPhos (+) (as in FIG. 2) and sacrificed on D14. WB of isolated IEC proteins indicated are shown in nuclear and membranous protein fractions along with densitometry. (#mice=4 for each condition). *p<0.04. FIG. 16E. Normal human colonic biopsies were incubated at 4° C. with AuPhos×3 hrs. Membranous and nuclear fractions examined for indicated proteins by WB.\nTaking advantage of the unique electrochemical properties and excellent safety profile of gold in humans, a stable gold compound was designed to modulate mitochondrial processes including oxidative phosphorylation (OXPHOS). […] IEC (FIG. 16C). […] These examples illustrate that AuPhos has utility for “gut selective” IBD therapy."}, "[1]": {"experiment": "Stability of AuPhos in PBS and DMEM", "format": "physicochemical", "excerpt": "FIGS. 8A-8J present properties of AuPhos. FIG. 8A includes a chemical structure of AuPhos. FIG. 8B includes extrapolated AuPhos-induced OCR (complex I) in liver mitochondria. […] FIG. 8E provides weight change in AuPhos-treated mice over time. FIG. 8F presents stability of AuPhos in PBS and DMEM. FIG. 8G presents stability of AuPhos in PBS and DMEM. FIG. 8H includes an AuPhos-induced Heat map of DEG (left Panel), obtained using log 2(Fold Change) and p-Value <0.00001 thresholds in MDA-MB-231(107) cells (n=2), and the top six hits of KEGG analysis (right panel). FIG. 8I presents biodistribution and pharmacokinetics of AuPhos in different tissues; Colon, Small bowel, Lung, Kidney, Spleen, Liver, Heart and Blood after single dose (oral, 25 mg/kg) administration of AuPhos at 6 h, 12 h and 24 h. FIG. 8J presents biodistribution and pharmacokinetics of AuPhos in different tissues stool after single dose (oral, 25 mg/kg) administration of AuPhos at 6 h, 12 h and 24 h.\nThis observation was mitochondrial complex I-driven when different substrates, i.e. pyruvate and succinate, were used to measure the OCR. Transcriptomics was used to study global changes in mRNA in response to a 12 h exposure of AuPhos to MDA-MB-231 cells (FIG. 8H)."}}}
{"compound": "[Cl][Au]1([c]2ccccc2Cc2ccccn2)[P](c2ccccc2)(c2ccccc2)c2ccccc2[P]1(c1ccccc1)c1ccccc1", "note": "[AuPhos]", "values": [{"measurement": "Nrf2 and PGC1α levels in IEC", "setting": "isolated IEC; WB", "result": "increased Nrf2 and PGC1α levels"}, {"measurement": "mitochondrial complex levels in IEC", "setting": "isolated IEC; control and DSS colitis mice, sacrificed D14, WB", "result": "increases mitochondrial complex levels"}, {"measurement": "solution stability", "setting": "[1]", "result": "excellent solution stability"}]}
